Experimental data as given in ChEMBL document CHEMBL6078640, “Trivalent oleanolic acid-glucose conjugates: Synthesis and efficacy against Influenza A virus” (Eur J Med Chem, 2024).

Legend:
Influenza A virus [1] = experiment: Antiviral activity against Influenza A virus H1N1 infected in MDCK cells assessed as inhibition of viral growth at 100 uM relative to control; assay type: functional
[2] = Selectivity index, ratio of CC50 for dog MDCK cells to IC50 for influenza A virus A/WSN/33(H1N1) infected in MDCK cells; assay type: toxicity, cell-based; conditions: read-out: Selectivity Index
[3] = Cytotoxicity against dog MDCK cells assessed as reduction in cell viability incubated for 40 hrs by celltiter-glo assay; assay type: toxicity, cell-based, Canis lupus familiaris
MDCK = experiment: Cytotoxicity against dog MDCK cells assessed as reduction in cell viability at 100 uM incubated for 40 hrs by celltiter-glo assay; assay type: toxicity, cell-based, Canis lupus familiaris
Influenza A virus [4] = experiment: Antiviral activity against influenza A virus A/WSN/33(H1N1) infected in MDCK cells assessed as inhibition of viral-induced cytopathic effect pretreated with cells followed by viral infection and measured after 40 hrs by fluorescence based microplate reader analysis; assay type: functional, organism-based

Row | Structure (SMILES) | inhibition at 100 µM (Influenza A virus [1]) | selectivity ratio [2] | CC50 at 40 h [3] | Activity (MDCK) | IC50 (Influenza A virus [4])
1 | CC(=O)OC[C@H]1O[C@@H](n2cc(CNC(=O)[C@]34CCC(C)(C)C[C@H]3C3=CC[C@@H]5[C@@]6(C)CC[C@H](OC(=O)NCCCCCc7cn(CC(CO)(Cn8cc(CCCCCNC(=O)O[C@H]9CC[C@]%10(C)[C@H]%11CC=C%12[C@@H]%13CC(C)(C)CC[C@]%13(C(=O)NCc%13cn([C@@H]%14O[C@H](COC(C)=O)[C@@H](OC(C)=O)[C@H](OC(C)=O)[C@H]%14OC(C)=O)nn%13)CC[C@@]%12(C)[C@]%11(C)CC[C@H]%10C9(C)C)nn8)Cn8cc(CCCCCNC(=O)O[C@H]9CC[C@]%10(C)[C@H]%11CC=C%12[C@@H]%13CC(C)(C)CC[C@]%13(C(=O)NCc%13cn([C@@H]%14O[C@H](COC(C)=O)[C@@H](OC(C)=O)[C@H](OC(C)=O)[C@H]%14OC(C)=O)nn%13)CC[C@@]%12(C)[C@]%11(C)CC[C@H]%10C9(C)C)nn8)nn7)C(C)(C)[C@@H]6CC[C@@]5(C)[C@]3(C)CC4)nn2)[C@H](OC(C)=O)[C@@H](OC(C)=O)[C@@H]1OC(C)=O | > 75% | > 4.02 | > 100 µM | Non-toxic | 24.9 µM
2 | CC1(C)CC[C@]2(C(=O)NCc3cn([C@@H]4O[C@H](CO)[C@@H](O)[C@H](O)[C@H]4O)nn3)CC[C@]3(C)C(=CC[C@@H]4[C@@]5(C)CC[C@H](OC(=O)NCCCCCc6cn(Cc7cc(Cn8cc(CCCCCNC(=O)O[C@H]9CC[C@]%10(C)[C@H]%11CC=C%12[C@@H]%13CC(C)(C)CC[C@]%13(C(=O)NCc%13cn([C@@H]%14O[C@H](CO)[C@@H](O)[C@H](O)[C@H]%14O)nn%13)CC[C@@]%12(C)[C@]%11(C)CC[C@H]%10C9(C)C)nn8)cc(Cn8cc(CCCCCNC(=O)O[C@H]9CC[C@]%10(C)[C@H]%11CC=C%12[C@@H]%13CC(C)(C)CC[C@]%13(C(=O)NCc%13cn([C@@H]%14O[C@H](CO)[C@@H](O)[C@H](O)[C@H]%14O)nn%13)CC[C@@]%12(C)[C@]%11(C)CC[C@H]%10C9(C)C)nn8)c7)nn6)C(C)(C)[C@@H]5CC[C@]43C)[C@@H]2C1 | > 75% | > 1.37 | > 100 µM | Non-toxic | 72.9 µM
3 | CC(=O)OC[C@H]1O[C@@H](n2cc(CNC(=O)[C@]34CCC(C)(C)C[C@H]3C3=CC[C@@H]5[C@@]6(C)CC[C@H](OC(=O)NCCCCCc7cn(Cc8cc(Cn9cc(CCCCCNC(=O)O[C@H]%10CC[C@]%11(C)[C@H]%12CC=C%13[C@@H]%14CC(C)(C)CC[C@]%14(C(=O)NCc%14cn([C@@H]%15O[C@H](COC(C)=O)[C@@H](OC(C)=O)[C@H](OC(C)=O)[C@H]%15OC(C)=O)nn%14)CC[C@@]%13(C)[C@]%12(C)CC[C@H]%11C%10(C)C)nn9)cc(Cn9cc(CCCCCNC(=O)O[C@H]%10CC[C@]%11(C)[C@H]%12CC=C%13[C@@H]%14CC(C)(C)CC[C@]%14(C(=O)NCc%14cn([C@@H]%15O[C@H](COC(C)=O)[C@@H](OC(C)=O)[C@H](OC(C)=O)[C@H]%15OC(C)=O)nn%14)CC[C@@]%13(C)[C@]%12(C)CC[C@H]%11C%10(C)C)nn9)c8)nn7)C(C)(C)[C@@H]6CC[C@@]5(C)[C@]3(C)CC4)nn2)[C@H](OC(C)=O)[C@@H](OC(C)=O)[C@@H]1OC(C)=O | > 75% | > 1.89 | > 100 µM | Non-toxic | 52.9 µM
4 | CC1(C)CC[C@]2(C(=O)NCc3cn([C@@H]4O[C@H](CO)[C@@H](O)[C@H](O)[C@H]4O)nn3)CC[C@]3(C)C(=CC[C@@H]4[C@@]5(C)CC[C@H](OC(=O)NCc6cn(CC(CO)(Cn7cc(CNC(=O)O[C@H]8CC[C@]9(C)[C@H]%10CC=C%11[C@@H]%12CC(C)(C)CC[C@]%12(C(=O)NCc%12cn([C@@H]%13O[C@H](CO)[C@@H](O)[C@H](O)[C@H]%13O)nn%12)CC[C@@]%11(C)[C@]%10(C)CC[C@H]9C8(C)C)nn7)Cn7cc(CNC(=O)O[C@H]8CC[C@]9(C)[C@H]%10CC=C%11[C@@H]%12CC(C)(C)CC[C@]%12(C(=O)NCc%12cn([C@@H]%13O[C@H](CO)[C@@H](O)[C@H](O)[C@H]%13O)nn%12)CC[C@@]%11(C)[C@]%10(C)CC[C@H]9C8(C)C)nn7)nn6)C(C)(C)[C@@H]5CC[C@]43C)[C@@H]2C1 | > 75% | > 14.5 | > 100 µM | Non-toxic | 6.91 µM
